Among the data in patent US8709454B2, “Combination of a microorganism and a phytosphingosine derivative, composition, methods of use” (L'Oreal, priority 2009, dated 2014) are INV expression, K6B expression and K10 expression values, retold here.

Format in all cases: cell-based
Details in all cases: topical 50 μl, 6 hours after treatment, related to G3PDH messenger

In one test the test system is involucrin (INV) gene. The test can be described thus: RT-qPCR gene expression in Episkin reconstructed epidermis: involucrin. On the procedure: (§1) The effects of the following four compositions were tested on the differentiation of Episkin® reconstructed epidermis. • A: formulation support (ethyl alcohol (3%) and water (97%)), • B: lysate (ethyl alcohol (3%), water (87%), lysate (10%)), • C: phytosphingosine salicylate (ethyl alcohol (3%), water (96.998%), phytosphingosine salicylate (0.002%)), and • D: combination in accordance with the invention=(0.002% phytosphingosine salicylate+10% lysate+ethyl alcohol (3%)+water (86.998%)).
(§2) J6 Episkin® reconstructed epidermis were placed in 12-well plates containing 2 ml of a maintenance medium and cultured at 37° C. and 5% CO2 for 24 hours. […]
(§3) These effects were characterized by analysing the expression of the cytokeratin 6B (K6B), cytokeratin 10 (K10) and involucrin (INV) genes using a real-time PCR method (quantitative PCR, qPCR) 6 hours after treatment.
(§4) The expression of the markers selected was evaluated by RT-qPCR on the messenger RNA extracted from the Episkin® reconstructed epidermis of each treatment (the duplicates were pooled before RNA extraction) 6, 24 and 48 hours after treatment. […]
(§5) The incorporation of fluorescence into the amplified DNA is measured continuously during the PCR cycles. This system makes it possible to obtain curves of the fluorescence measurement as a function of the PCR cycles and thus to evaluate a relative expression value for each marker. […]

The test system of test [1] is cytokeratin 6B (K6B) gene. The experiment in a line: RT-qPCR gene expression in Episkin reconstructed epidermis: cytokeratin 6B. As for the experimental part: as §1, §2, §3, §4, §5
On the technique in general: Real-time PCR tracks product formation cycle by cycle.

Test [2] concerns cytokeratin 10 (K10) gene. The test can be described thus: RT-qPCR gene expression in Episkin reconstructed epidermis: cytokeratin 10. On the procedure: as §1, §2, §3, §4, §5

Regarding “phytosphingosine salicylate [Composition C]”, the INV expression in the test with involucrin (INV) gene is given as 146 % of the untreated control. Moreover, in test [1], the K6B expression is listed as 158 % of the untreated control. The K10 expression in test [2] is 122 % of the untreated control.
